Data from patent US11180504B2 (ORCHID PHARMA LTD., priority 2016, dated 2021).
≈ marks a conversion by molar mass, not a printed value.

Key:
[1] = test system: carbapenem sensitive Pseudomonas aeruginosa; test: MIC by broth micro-dilution (CLSI), carbapenem sensitive P. aeruginosa; format: cell-based; settings: Pseudomonas aeruginosa, ATCC27853, Meropenem susceptible P. aeruginosa ATCC27853; read-out: MIC
[2] = test system: carbapenem sensitive Escherichia coli; test: MIC by broth micro-dilution (CLSI), carbapenem sensitive E. coli; format: cell-based; settings: Escherichia coli, ATCC25922, ESBL −ve E. coli ATCC25922; read-out: MIC
[3] = test system: carbapenemase producing K. pneumoniae; test: MIC by broth micro-dilution (CLSI), carbapenemase producing K. pneumoniae; format: cell-based, Klebsiella pneumoniae; settings: Klebsiella pneumoniae, ATCCBAA1705, KPC-2 K. pneumoniae ATCC BAA-1705; read-out: MIC
[4] = test system: methicillin-sensitive Staphylococcus aureus; test: MIC by broth micro-dilution (CLSI), methicillin-sensitive S. aureus; format: cell-based; settings: Staphylococcus aureus, ATCC 29213 / MSSA, MSSA S. aureus ATCC29213; read-out: MIC

Row | SMILES | MIC [1] [µg/mL] | MIC [2] [µg/mL] | MIC [3] [µg/mL] | MIC [4] [µg/mL]
1 | C[C@@H](NC(=O)C(F)F)[C@H]1C(=O)N2C(C(=O)O)=C(S[C@@H]3CN[C@H](C(=O)N4CCc5nc(N)sc5C4)C3)[C@H](C)[C@H]12 [Example 235] | > 128 | 2 (≈ 3.5 µM) | 16 (≈ 28 µM) | 2 (≈ 3.5 µM)
2 | C[C@@H](NC(=O)C(F)F)[C@H]1C(=O)N2C(C(=O)O)=C(S[C@@H]3CN[C@H](CNS(=O)(=O)N4CC[C@@H](N)C4)C3)[C@H](C)[C@H]12 [Example 236] | 128 (≈ 226 µM) | 2 (≈ 3.53 µM) | 4 (≈ 7.06 µM) | 2 (≈ 3.53 µM)
3 | C[C@@H](NC(=O)C(F)F)[C@H]1C(=O)N2C(C(=O)O)=C(S[C@@H]3CN[C@H](CNS(=O)(=O)N4CC[C@H](N)C4)C3)[C@H](C)[C@H]12 [Example 237] | 128 (≈ 226 µM) | 2 (≈ 3.53 µM) | 4 (≈ 7.06 µM) | 1 (≈ 1.76 µM)
4 | C[C@@H](NC(=O)C(F)F)[C@H]1C(=O)N2C(C(=O)O)=C(S[C@@H]3CN[C@H](C(=O)N(C)Cc4cc(=O)c(O)cn4C)C3)[C@H](C)[C@H]12 [Example 243] | > 128 | 16 (≈ 27.4 µM) | 32 (≈ 54.8 µM) | 32 (≈ 54.8 µM)
5 | C[C@@H](NC(=O)C(F)F)[C@H]1C(=O)N2C(C(=O)O)=C(S[C@@H]3CN[C@H](CN)C3)[C@H](C)[C@H]12 [Example 244] | 64 (≈ 153 µM) | 1 (≈ 2.39 µM) | 4 (≈ 9.56 µM) | 1 (≈ 2.39 µM)
6 | C[C@@H](NC(=O)C(F)F)[C@H]1C(=O)N2C(C(=O)O)=C(S[C@@H]3CN[C@H](C(=O)N4CC[C@H](NCc5cc(=O)c(O)cn5C)C4)C3)[C@H](C)[C@H]12 [Example 246] | > 128 | 8 (≈ 12.5 µM) | 128 (≈ 200 µM) | 32 (≈ 50.1 µM)
7 | C[C@@H](NC(=O)C(F)F)[C@H]1C(=O)N2C(C(=O)O)=C(S[C@@H]3CN[C@H](C(=O)N4C[C@H](NC(=N)N)[C@@H](O)C4)C3)[C@H](C)[C@H]12 [Example 247] | > 128 | 4 (≈ 7.15 µM) | 32 (≈ 57.2 µM) | 32 (≈ 57.2 µM)
8 | C[C@@H](NC(=O)C(F)F)[C@H]1C(=O)N2C(C(=O)O)=C(S[C@@H]3CN[C@@H](C(=O)N(C)C)C3)[C@H](C)[C@H]12 [Example 248] | > 128 | 1 (≈ 2.17 µM) | 4 (≈ 8.69 µM) | 1 (≈ 2.17 µM)
9 | CNCC(=O)N[C@H](C)[C@H]1C(=O)N2C(C(=O)O)=C(S[C@@H]3CN[C@H](CNC(=O)c4cc(=O)c(O)cn4C)C3)[C@H](C)[C@H]12 [Example 254] | 128 (≈ 227 µM) | 8 (≈ 14.2 µM) | 16 (≈ 28.4 µM) | 64 (≈ 114 µM)

Compounds with a lower MIC [1], results first:

Row | MIC [1] [µg/mL] | MIC [2] [µg/mL] | MIC [3] [µg/mL] | MIC [4] [µg/mL] | SMILES
10 | 32 (≈ 66.4 µM) | 2 (≈ 4.15 µM) | 2 (≈ 4.15 µM) | 16 (≈ 33.2 µM) | C[C@@H](NC(=O)CNC(=N)N)[C@H]1C(=O)N2C(C(=O)O)=C(S[C@@H]3CN[C@H](C(=O)N(C)C)C3)[C@H](C)[C@H]12 [Example 241]
11 | 32 (≈ 60.1 µM) | 0.25 (≈ 0.469 µM) | 0.5 (≈ 0.939 µM) | 0.5 (≈ 0.939 µM) | C[C@@H](NC(=O)C(F)F)[C@H]1C(=O)N2C(C(=O)O)=C(S[C@@H]3CN[C@H](C(=O)C4C[C@@H](N)C[C@H]4CF)C3)[C@H](C)[C@H]12 (some centres unmarked) [Example 251]
12 | 32 (≈ 61.2 µM) | 4 (≈ 7.65 µM) | 8 (≈ 15.3 µM) | 8 (≈ 15.3 µM) | CNCC(=O)N[C@H](C)[C@H]1C(=O)N2C(C(=O)O)=C(S[C@@H]3CN[C@H](CNC(=O)[C@H]4CC[C@@H](N)C4)C3)[C@H](C)[C@H]12 [Example 255]
13 | 16 (≈ 28.6 µM) | 2 (≈ 3.57 µM) | 4 (≈ 7.15 µM) | 16 (≈ 28.6 µM) | CNCC(=O)N[C@H](C)[C@H]1C(=O)N2C(C(=O)O)=C(S[C@@H]3CN[C@H](CNS(=O)(=O)N4CCNCC4)C3)[C@H](C)[C@H]12 [Example 252]
14 | 16 (≈ 28.6 µM) | 16 (≈ 28.6 µM) | 16 (≈ 28.6 µM) | 32 (≈ 57.2 µM) | CNCC(=O)N[C@H](C)[C@H]1C(=O)N2C(C(=O)O)=C(S[C@@H]3CN[C@H](CNS(=O)(=O)N4CC[C@H](N)C4)C3)[C@H](C)[C@H]12 [Example 253]
15 | 8 (≈ 15.3 µM) | 2 (≈ 3.83 µM) | 2 (≈ 3.83 µM) | 16 (≈ 30.6 µM) | C[C@@H](NC(=O)CNC(=N)N)[C@H]1C(=O)N2C(C(=O)O)=C(S[C@@H]3CN[C@H](C(=O)N4CC[C@@H](N)C4)C3)[C@H](C)[C@H]12 [Example 242]
16 | 4 (≈ 7.3 µM) | 0.25 (≈ 0.457 µM) | 2 (≈ 3.65 µM) | 2 (≈ 3.65 µM) | C[C@@H](NC(=O)Cn1cnnn1)[C@H]1C(=O)N2C(C(=O)O)=C(S[C@@H]3CN[C@H](CC(=O)N4CCC(N)C4)C3)[C@H](C)[C@H]12 (stereo in doubt) [Example 536, (4R,5S,6R)-6-((R)-1-(2-(1H-tetrazol-1-yl)acetamido)-ethyl)-3-((3S,5R)-5-(2-((R)-3-aminopyrrolidin-1-yl)-2-oxoethyl)pyrrolidin-3-ylthio)-4-methyl-7-oxo-1-azabicyclo[3.2.0]hept-2-ene-2-carboxylic acid]
17 | 4 (≈ 8.32 µM) | 2 (≈ 4.16 µM) | 4 (≈ 8.32 µM) | 8 (≈ 16.6 µM) | C[C@@H](NC(=O)CN)[C@H]1C(=O)N2C(C(=O)O)=C(S[C@@H]3CN[C@H](C(=O)N4CC[C@@H](N)C4)C3)[C@H](C)[C@H]12 [Example 245]
